# In patent US20250136722A1, “CYTOTOXICITY TARGETING CHIMERAS” (GLAXOSMITHKLINE INTELLECTUAL PROPERTY DEVELOPMENT LIMITED, priority 2021, published 2025):
# “And” between values parts separate entries of the source, which are not always exact repeats. Equal entries are not always repeated. Structures can show the parent of a compound that is named as a salt.
# Molecular target: T1, CHOK1 cells engineered to overexpress human CCR2 (Homo sapiens, UniProt P41597)
# T1 construct: expressed in transfected cells; host or cells: CHOK1 cells
# Test: Antibody dependent cellular cytotoxicity (ADCC) reporter assay (Example 199)
# Assay type: cell-based
# Details: with anti-cotinine antibody SEQ ID NO: 11/12; CHOK1-human CCR2 target cells, Jurkat FcγRIIIa NFAT-luciferase reporter cells; 12-18 hours; read-out: ADCC Reporter Assay pEC50 (converted)
# Protocol: An antibody dependent cellular cytoxicity reporter assay was conducted using the following four assay components: (i) ARM compound of Formula (I) targeting CCR2 (concentrations ranging from 1 pM to 10 μM) (ii) anti-cotinine antibody having a heavy chain sequence of SEQ ID NO: 11 and a light chain sequence of SEQ ID NO: 12 (rabbit variable region with human IgG1 Fc domain containing a DE mutation (S239D/1332E)) (concentrations ranging from 0.01 μg/mL to 200 μg/mL); (iii) target cells: CHOK1 cells engineered to overexpress either human CCR2 (typically 1000-20,000 cells per well) and (iv) reporter cells: Jurkat cells engineered to express FcγRIIIa with the reporter gene luciferase under the control of the NFAT promoter (typically 3000-75,000 cells per well). Reagents were combined in a final volume of 20 μL in a 384-well tissue culture treated plate. All four assay components were incubated together for about 12-18 hours. Thereafter, BioGlo Detection reagent (Promega) was added to the wells to lyse the cells and provide a substrate for the luciferase reporter protein. Luminescence signal was measured on a microplate reader and signal:background was calculated by dividing the signal of a test well by the signal obtained when no heterobivalent compound of Formula (I) was added. EC50 calculations were done using Graphpad Prism Software, specifically a nonlinear regression curve fit (Y=Bottom+(Top−Bottom)/(1+10^((Log EC50−X)*HillSlope))).
# ARMs compounds of Formula (I) of the invention were tested for ADCC activity in the above assay in or more experimental runs and the results are shown in Table 3 below. Potency of the compounds of Formula (I) of the invention is reported as a pEC50 value. The pEC50 value is the negative log of the EC50 value, wherein the EC50 value is the half maximal effective concentration measured in molar (M). For compounds tested in more than one experimental run, the pEC50 value is reported as an average.
row,Structure (SMILES),EC50
1,"CC(C)N(C)[C@@H]1CC[C@H](N2CC[C@H](Nc3ncnc4ccc(C(F)(F)F)cc34)C2=O)[C@H](NC(=O)[C@H]2CC[C@@H](NC(=O)CCOCCCOCCCNC(=O)[C@H]3CC(=O)N(C)[C@@H]3c3cccnc3)CC2)C1 [Example 197, (2S,3S)-N-(3-(3-(3-(((1S,4s)-4-(((1R,2S,5R)-5-(Isopropyl(methyl)amino)-2-((S)-2-oxo-3-((6-(trifluoromethyl)quinazolin-4-yl)amino)pyrrolidin-1-yl)cyclohexyl)carbamoyl)cyclohexyl)amino)-3-oxopropoxy)propoxy)propyl)-1-methyl-5-oxo-2-(pyridin-3-yl)pyrrolidine-3-carboxamide]",0.251 nM
2,"CC(C)N(C)[C@@H]1CC[C@H](N2CC[C@H](Nc3ncnc4ccc(C(F)(F)F)cc34)C2=O)[C@H](NC(=O)C2CCN(C3CCN(C(=O)CCOCCOCCNC(=O)[C@H]4CC(=O)N(C)[C@@H]4c4cccnc4)CC3)CC2)C1 [Example 172, N-((1R,2S,5R)-5-(Isopropyl(methyl)amino)-2-((S)-2-oxo-3-((6-(trifluoromethyl)quinazolin-4-yl)amino)pyrrolidin-1-yl)cyclohexyl)-1′-(3-(2-(2-((2S,3S)-1-methyl-5-oxo-2-(pyridin-3-yl)pyrrolidine-3-carboxamido)ethoxy)ethoxy)propanoyl)-[1,4′-bipiperidine]-4-carboxamide]",0.794 nM
3,CC(C)N(C)[C@@H]1CC[C@H](N2CC[C@H](Nc3ncnc4ccc(C(F)(F)F)cc34)C2=O)[C@H](NC(=O)[C@H]2CC[C@@H](NC(=O)CNC(=O)COCCOCCNC(=O)[C@H]3CC(=O)N(C)[C@@H]3c3cccnc3)CC2)C1 [Example 81],0.522 nM
4,CC(C)N(C)[C@@H]1CC[C@H](N2CC[C@H](Nc3ncnc4ccc(C(F)(F)F)cc34)C2=O)[C@H](NC(=O)c2ccnc(NCCOCCOCCOCCOCCNC(=O)[C@H]3CC(=O)N(C)[C@@H]3c3cccnc3)c2)C1 [Example 126],1.58 nM
5,CC(C)N(C)[C@@H]1CC[C@H](N2CC[C@H](Nc3ncnc4ccc(C(F)(F)F)cc34)C2=O)[C@H](NC(=O)[C@H]2C[C@H](NC(=O)CCO[C@H]3CC[C@H](OCCNC(=O)[C@H]4CC(=O)N(C)[C@@H]4c4cccnc4)CC3)C2)C1 [Example 117],0.316 nM
6,"CC(C)N(C)[C@@H]1CC[C@H](N2CC[C@H](Nc3ncnc4ccc(C(F)(F)F)cc34)C2=O)[C@H](NC(=O)c2cnn(C3CCN(CCOCCOCCNC(=O)[C@H]4CC(=O)N(C)[C@@H]4c4cccnc4)CC3)c2)C1 [Example 92, N-((1R,2S,5R)-5-(Isopropyl(methyl)amino)-2-((S)-2-oxo-3-((6-(trifluoromethyl)quinazolin-4-yl)amino)pyrrolidin-1-yl)cyclohexyl)-1-(1-(2-(2-(2-((2S,3S)-1-methyl-5-oxo-2-(pyridin-3-yl)pyrrolidine-3-carboxamido)ethoxy)ethoxy)ethyl)piperidin-4-yl)-1H-pyrazole-4-carboxamide]",6.31 nM
7,"CC(C)N(C)[C@@H]1CC[C@H](N2CC[C@H](Nc3ncnc4ccc(C(F)(F)F)cc34)C2=O)[C@H](NC(=O)CCCCCCCCC(=O)NCCCCCCCCCCNC(=O)[C@H]2CC(=O)N(C)[C@@H]2c2cccnc2)C1 [Example 165, N^1-((1R,2S,5R)-5-(isopropyl(methyl)amino)-2-((S)-2-oxo-3-((6-(trifluoromethyl)quinazolin-4-yl)amino)pyrrolidin-1-yl)cyclohexyl)-N^10-(10-((2S,3S)-1-methyl-5-oxo-2-(pyridin-3-yl)pyrrolidine-3-carboxamido)decyl)decanediamide]",1.26 nM
8,CC(C)N(C)[C@@H]1CC[C@H](N2CC[C@H](Nc3ncnc4ccc(C(F)(F)F)cc34)C2=O)[C@H](NC(=O)[C@H]2CC[C@H](N3CCN(CCOCCOCCNC(=O)[C@H]4CC(=O)N(C)[C@@H]4c4cccnc4)CC3)CC2)C1 [compound 190],2.51 nM
9,"CC(C)N(C)[C@@H]1CC[C@H](N2CC[C@H](Nc3ncnc4ccc(C(F)(F)F)cc34)C2=O)[C@H](NC(=O)c2cc(OCCOCCOCCOCCOCCNC(=O)[C@H]3CC(=O)N(C)[C@@H]3c3cccnc3)ccn2)C1 [Example 88, N-((1R,2S,5R)-5-(Isopropyl(methyl)amino)-2-((S)-2-oxo-3-((6-(trifluoromethyl)quinazolin-4-yl)amino)pyrrolidin-1-yl)cyclohexyl)-4-((1-((2S,3S)-1-methyl-5-oxo-2-(pyridin-3-yl)pyrrolidin-3-yl)-1-oxo-5,8,11,14-tetraoxa-2-azahexadecan-16-yl)oxy)picolinamide]",2.51 nM
10,CC(C)N(C)[C@@H]1CC[C@H](N2CC[C@H](Nc3ncnc4ccc(C(F)(F)F)cc34)C2=O)[C@H](NC(=O)c2ccc(NCCOCCOCCOCCOCCNC(=O)[C@H]3CC(=O)N(C)[C@@H]3c3cccnc3)nn2)C1 [Example 125],3.16 nM
11,CC(C)N(C)[C@@H]1CC[C@H](N2CC[C@H](Nc3ncnc4ccc(C(F)(F)F)cc34)C2=O)[C@H](NC2CCC(C(=O)NCCOCCOCCNC(=O)[C@H]3CC(=O)N(C)[C@@H]3c3cccnc3)CC2)C1 (stereo partly drawn) [Example 68],10 nM
12,CC(C)N(C)[C@@H]1CC[C@H](N2CC[C@H](Nc3ncnc4ccc(C(F)(F)F)cc34)C2=O)[C@H](NC(=O)c2cccc(NCCOCCOCCOCCOCCOCCNC(=O)[C@H]3CC(=O)N(C)[C@@H]3c3cccnc3)n2)C1 [Example 124],2 nM
13,CC(C)N(C)[C@@H]1CC[C@H](N2CC[C@H](Nc3ncnc4ccc(C(F)(F)F)cc34)C2=O)[C@H](NC(=O)c2cc(OCCOCCOCCOCCNC(=O)[C@H]3CC(=O)N(C)[C@@H]3c3cccnc3)ccn2)C1 [Example 89],6.31 nM
14,"CC(C)N(C)[C@@H]1CC[C@H](N2CC[C@H](Nc3ncnc4ccc(C(F)(F)F)cc34)C2=O)[C@H](NC(=O)CCOCCOCCNC(=O)[C@@H]2CCCN2CCOCCNC(=O)[C@H]2CC(=O)N(C)[C@@H]2c2cccnc2)C1 [Example 118, (S)-N-(2-(2-(3-(((1R,2S,5R)-5-(Isopropyl(methyl)amino)-2-((S)-2-oxo-3-((6-(trifluoromethyl)quinazolin-4-yl)amino)pyrrolidin-1-yl)cyclohexyl)amino)-3-oxopropoxy)ethoxy)ethyl)-1-(2-(2-((2S,3S)-1-methyl-5-oxo-2-(pyridin-3-yl)pyrrolidine-3-carboxamido)ethoxy)ethyl)pyrrolidine-2-carboxamide]",3.98 nM
15,"CC(C)N(C)[C@@H]1CC[C@H](N2CC[C@H](Nc3ncnc4ccc(C(F)(F)F)cc34)C2=O)[C@H](NC(=O)CCc2ccc(C3CCN(C(=O)CCCCCNC(=O)[C@H]4CC(=O)N(C)[C@@H]4c4cccnc4)CC3)cc2)C1 [Example 86, (2S,3S)-N-(6-(4-(4-(3-(((1R,2S,5R)-5-(Isopropyl(methyl)amino)-2-((S)-2-oxo-3-((6-(trifluoromethyl)quinazolin-4-yl)amino)pyrrolidin-1-yl)cyclohexyl)amino)-3-oxopropyl)phenyl)piperidin-1-yl)-6-oxohexyl)-1-methyl-5-oxo-2-(pyridin-3-yl)pyrrolidine-3-carboxamide]",7.94 nM
16,"CC(C)N(C)[C@@H]1CC[C@H](N2CC[C@H](Nc3ncnc4ccc(C(F)(F)F)cc34)C2=O)[C@H](NC(=O)C2CCN(C3CCN(CCOCCOCCNC(=O)[C@H]4CC(=O)N(C)[C@@H]4c4cccnc4)CC3)CC2)C1 [Example 90, N-((1R,2S,5R)-5-(Isopropyl(methyl)amino)-2-((S)-2-oxo-3-((6-(trifluoromethyl)quinazolin-4-yl)amino)pyrrolidin-1-yl)cyclohexyl)-1′-(2-(2-(2-((2S,3S)-1-methyl-5-oxo-2-(pyridin-3-yl)pyrrolidine-3-carboxamido)ethoxy)ethoxy)ethyl)-[1,4′-bipiperidine]-4-carboxamide]",2 nM
17,CC(C)N(CCOCCOCCC(=O)N[C@H]1CC[C@@H](C(=O)N[C@@H]2C[C@H](N(C)C(C)C)CC[C@@H]2N2CC[C@H](Nc3ncnc4ccc(C(F)(F)F)cc34)C2=O)CC1)C(=O)CCCNC(=O)[C@H]1CC(=O)N(C)[C@@H]1c1cccnc1 [Example 177],0.501 nM and 0.316 nM
18,"CC(C)N(C)[C@@H]1CC[C@H](N2CC[C@H](Nc3ncnc4ccc(C(F)(F)F)cc34)C2=O)[C@H](NC(=O)c2ccnc(CCCOCCOCCOCCOCCNC(=O)[C@H]3CC(=O)N(C)[C@@H]3c3cccnc3)c2)C1 [Example 160, N-((1R,2S,5R)-5-(Isopropyl(methyl)amino)-2-((S)-2-oxo-3-((6-(trifluoromethyl)quinazolin-4-yl)amino)pyrrolidin-1-yl)cyclohexyl)-2-(1-((2S,3S)-1-methyl-5-oxo-2-(pyridin-3-yl)pyrrolidin-3-yl)-1-oxo-5,8,11,14-tetraoxa-2-azaheptadecan-17-yl)isonicotinamide, 3Formic acid salt]",2 nM
